Assay results reported in US10065990B2, “Cyclic peptide compound, and preparation method, pharmaceutical composition and use thereof” (HANGZHOU GUANYU BIO-MEDICAL CO., LTD, priority 2013, dated 2018).
Read-outs that look alike come from different tables or passages of the source.

Assays:
HDAC2 = HDAC2 (Homo sapiens, UniProt Q92769); test: HDAC biochemical activity measurement (fluorescent substrate deacetylation);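 also: HDAC2 enzyme with an acetyl-lysine fluorescent substrate, then developer added, fluorescence read at excitation 360 nm and emission 460 nm, inhibition measured across several compound concentrations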; settings: 37° C. 30 minutes
Sequence of HDAC2 (Q92769 whole entry, species assumed): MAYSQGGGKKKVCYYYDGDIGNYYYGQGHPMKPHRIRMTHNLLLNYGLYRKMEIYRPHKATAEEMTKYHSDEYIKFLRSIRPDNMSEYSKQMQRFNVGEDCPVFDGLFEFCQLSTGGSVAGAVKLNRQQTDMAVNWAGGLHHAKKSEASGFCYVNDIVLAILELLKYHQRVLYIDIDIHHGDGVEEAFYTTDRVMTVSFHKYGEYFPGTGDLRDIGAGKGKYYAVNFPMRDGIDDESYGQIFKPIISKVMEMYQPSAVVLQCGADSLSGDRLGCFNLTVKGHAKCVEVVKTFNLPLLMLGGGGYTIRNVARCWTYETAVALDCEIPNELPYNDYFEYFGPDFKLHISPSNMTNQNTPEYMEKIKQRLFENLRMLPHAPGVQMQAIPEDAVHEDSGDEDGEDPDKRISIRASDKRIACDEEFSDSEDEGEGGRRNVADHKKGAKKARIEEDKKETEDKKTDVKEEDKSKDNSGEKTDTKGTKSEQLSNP
Method: (§2) The chemical activity of the compound is determined according to the degree of deacetylation inhibition of the HDAC enzyme. This experiment measured the degree of deacetylation related to tumor proliferation and metastasis of HDAC1, HDAC2, HDAC3, HDAC8, HDAC11 five subtypes HDAC enzymes. After the substrate containing an acetylated lysine side chain and HDAC enzyme are labeled with a fluorescent label, the fluorescent substrate is de acetyl. The fluorescent labeled substrate is cleaved by the enzyme, and the fluorescent substance is released, which generates 460 nm emission light under the excitation of 360 nm light.
(§3) HDAC substrate was diluted with reaction buffer to 200M (reaction concentration of 20M), the HDAC enzyme was diluted to the appropriate concentration, then added different concentrations of the test compounds and acted at 37° C. 30 minutes, and then added the same volume of 2-times concentration substrate developing solution (developer), incubated at room temperature for 15 minutes.

[1] = tested on: H1975 (non-small cell lung adenocarcinoma); test: MTT cancer cell growth inhibition; assay type: cell-based; settings: MTT, 72 hours incubation, H1975 cells, read-out: GI50 H1975
Procedure, shortened: (§1)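 MTT viability, 570 nm, GI50. Cells 1500/well; compound 72 h at final 10^−5–10^−10 M in triplicate.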

[2] = tested on: MCF-7 (human breast cancer cells); test: MTT cancer cell growth inhibition; assay type: cell-based
Procedure, shortened: as §1

[3] = tested on: MOLT-4 (human acute lymphoblastic leukemia cells); test: MTT cancer cell growth inhibition; assay type: cell-based; settings: MTT
Procedure, shortened: as §1

[4] = tested on: A549 (human lung cancer cells); test: MTT cancer cell growth inhibition; assay type: cell-based; settings: MTT
Procedure, shortened: as §1

[5] = tested on: KBM5-T315I (human chronic myelogenous leukemia); test: MTT cancer cell growth inhibition; assay type: cell-based; settings: MTT, 72 hours incubation, KBM5-T315I cells, read-out: GI50 KBM5-T315I
Procedure, shortened: as §1

HDAC8 = biological target: T1, HDAC8 (Homo sapiens, UniProt Q9BY41); test: HDAC biochemical activity measurement (fluorescent substrate deacetylation); settings: 37° C. 30 minutes
T1 sequence (Q9BY41 1-377): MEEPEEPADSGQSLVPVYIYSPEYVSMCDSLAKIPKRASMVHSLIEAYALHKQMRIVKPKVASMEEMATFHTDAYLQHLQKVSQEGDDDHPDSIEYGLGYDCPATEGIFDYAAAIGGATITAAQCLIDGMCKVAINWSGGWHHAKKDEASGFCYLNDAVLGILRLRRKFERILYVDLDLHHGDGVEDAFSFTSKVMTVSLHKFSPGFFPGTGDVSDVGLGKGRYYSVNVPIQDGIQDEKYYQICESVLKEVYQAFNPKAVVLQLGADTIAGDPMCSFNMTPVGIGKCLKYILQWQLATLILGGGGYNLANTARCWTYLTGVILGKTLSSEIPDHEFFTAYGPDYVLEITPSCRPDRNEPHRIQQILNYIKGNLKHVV

HDAC3 = HDAC3 (Homo sapiens, UniProt O15379); test: as above;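 also: fluorogenic acetyl-lysine substrate (20 µM) deacetylated by HDAC3, then developer added for 15 min at room temperature, release of fluorophore read at excitation 360 nm, emission 460 nm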
Sequence of HDAC3 (O15379 whole entry, species assumed): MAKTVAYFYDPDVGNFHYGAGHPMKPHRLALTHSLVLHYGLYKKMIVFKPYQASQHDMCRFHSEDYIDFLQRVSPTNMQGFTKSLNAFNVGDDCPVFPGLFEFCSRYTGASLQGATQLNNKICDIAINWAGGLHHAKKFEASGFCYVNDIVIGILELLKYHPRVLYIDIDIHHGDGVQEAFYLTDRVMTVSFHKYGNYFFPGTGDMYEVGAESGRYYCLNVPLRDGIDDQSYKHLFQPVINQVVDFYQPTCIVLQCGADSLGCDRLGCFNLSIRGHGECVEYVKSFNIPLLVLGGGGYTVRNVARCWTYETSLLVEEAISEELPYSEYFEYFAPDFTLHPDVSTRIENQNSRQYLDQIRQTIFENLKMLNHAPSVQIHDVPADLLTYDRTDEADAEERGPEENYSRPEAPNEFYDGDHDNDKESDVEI
Sequence of HDAC3 (Q9Y618 395-489 partner limits assumed, species assumed): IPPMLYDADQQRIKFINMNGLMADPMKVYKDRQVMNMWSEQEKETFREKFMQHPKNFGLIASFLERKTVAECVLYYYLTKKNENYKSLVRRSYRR

HDAC7 = biological target: T2, HDAC7 (Homo sapiens, UniProt Q8WUI4); test: as above; settings: HDAC7; 37° C. 30 minutes;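 also: fluorogenic deacetylation assay using acetyl-lysine substrate at 20 µM, enzyme and compound incubated 30 min at 37 °C, then developer added, fluorescence read at 360/460 nm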
T2 sequence (Q8WUI4 1-952): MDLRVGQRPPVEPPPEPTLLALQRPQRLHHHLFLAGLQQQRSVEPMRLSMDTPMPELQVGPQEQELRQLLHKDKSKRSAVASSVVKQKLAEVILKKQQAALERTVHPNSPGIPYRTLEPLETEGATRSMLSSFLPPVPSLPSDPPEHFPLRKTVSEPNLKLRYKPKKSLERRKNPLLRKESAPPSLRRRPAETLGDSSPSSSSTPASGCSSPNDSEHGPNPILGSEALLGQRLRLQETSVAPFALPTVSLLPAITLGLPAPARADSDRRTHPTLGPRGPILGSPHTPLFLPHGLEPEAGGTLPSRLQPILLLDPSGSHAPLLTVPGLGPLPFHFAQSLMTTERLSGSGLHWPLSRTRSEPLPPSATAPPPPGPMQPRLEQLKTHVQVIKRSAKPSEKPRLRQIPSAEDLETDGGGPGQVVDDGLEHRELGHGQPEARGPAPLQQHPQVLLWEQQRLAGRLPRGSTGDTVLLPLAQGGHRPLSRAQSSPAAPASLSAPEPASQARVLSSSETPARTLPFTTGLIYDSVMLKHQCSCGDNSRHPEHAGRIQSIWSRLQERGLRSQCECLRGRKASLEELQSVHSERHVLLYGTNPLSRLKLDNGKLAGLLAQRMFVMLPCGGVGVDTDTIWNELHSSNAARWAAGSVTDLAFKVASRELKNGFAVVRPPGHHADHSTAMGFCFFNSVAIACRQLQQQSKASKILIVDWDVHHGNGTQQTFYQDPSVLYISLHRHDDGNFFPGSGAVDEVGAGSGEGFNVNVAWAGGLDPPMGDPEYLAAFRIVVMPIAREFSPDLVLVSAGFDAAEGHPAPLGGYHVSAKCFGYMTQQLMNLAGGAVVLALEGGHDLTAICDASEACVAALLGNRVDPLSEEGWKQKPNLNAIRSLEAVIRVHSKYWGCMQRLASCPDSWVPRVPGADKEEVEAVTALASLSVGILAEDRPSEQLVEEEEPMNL

HDAC11 = biological target: T3, HDAC11 (Homo sapiens, UniProt Q96DB2); test: as above;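 also: HDAC11 enzyme acting on an acetyl-lysine fluorogenic substrate, then a developer frees the fluorophore, read at excitation 360 nm and emission 460 nm, IC50 over a compound dilution series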
T3 sequence (Q96DB2 1-347): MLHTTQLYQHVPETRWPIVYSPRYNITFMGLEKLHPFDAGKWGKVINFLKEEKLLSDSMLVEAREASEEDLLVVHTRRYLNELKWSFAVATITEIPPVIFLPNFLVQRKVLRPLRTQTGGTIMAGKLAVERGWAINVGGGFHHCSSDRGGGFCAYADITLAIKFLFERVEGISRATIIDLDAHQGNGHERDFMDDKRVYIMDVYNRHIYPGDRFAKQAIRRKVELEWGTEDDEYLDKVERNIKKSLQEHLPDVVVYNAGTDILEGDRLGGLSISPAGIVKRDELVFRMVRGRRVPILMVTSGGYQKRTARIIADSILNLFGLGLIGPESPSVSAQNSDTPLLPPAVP

HDAC1 = HDAC1 (Homo sapiens, UniProt Q13547); test: as above
Sequence of HDAC1 (Q13547 whole entry, species assumed): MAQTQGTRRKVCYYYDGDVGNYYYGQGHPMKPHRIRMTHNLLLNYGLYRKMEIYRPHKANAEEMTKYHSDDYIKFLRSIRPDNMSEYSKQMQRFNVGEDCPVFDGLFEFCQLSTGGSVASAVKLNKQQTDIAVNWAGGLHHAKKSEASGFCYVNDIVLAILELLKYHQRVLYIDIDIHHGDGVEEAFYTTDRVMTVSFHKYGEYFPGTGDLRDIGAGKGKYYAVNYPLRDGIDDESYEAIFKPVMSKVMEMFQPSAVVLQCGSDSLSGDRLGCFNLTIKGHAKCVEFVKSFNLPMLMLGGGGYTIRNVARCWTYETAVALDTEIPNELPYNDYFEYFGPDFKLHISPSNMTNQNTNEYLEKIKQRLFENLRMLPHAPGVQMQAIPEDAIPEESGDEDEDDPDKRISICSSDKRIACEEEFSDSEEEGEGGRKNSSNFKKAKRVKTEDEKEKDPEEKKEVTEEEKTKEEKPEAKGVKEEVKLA
Method: as §2, §3

[6] = Homo sapiens, MCF7, 72 h, 72 hours incubation, read-out: GI50 MCF
[7] = Homo sapiens, MOLT-4, 72 h, 72 hours incubation, read-out: GI50 Mol
[8] = Homo sapiens, A549, 72 h, 72 hours incubation, read-out: GI50 A54
[9] = read-out: IC50 HDAC3, HDAC3, 37° C. 30 minutes
[10] = read-out: IC50 HDAC11, HDAC11, 37° C. 30 minutes
[11] = HDAC1, 37° C. 30 minutes, read-out: IC50 HDAC1
[12] = Table 3, read-out: IC50 HDAC1, D (non-substituent)
[13] = Table 3, column C, read-out: IC50 HDAC1, C (six-membered ring with substituents)
[14] = Homo sapiens, MCF7, 72 h, MCF-7 cells, 72 hours incubation, read-out: GI50 MCF
[15] = Homo sapiens, MOLT-4, 72 h, MOLT-4 cells, 72 hours incubation, read-out: GI50 Mol
[16] = Homo sapiens, A549, 72 h, A549 cells, 72 hours incubation, read-out: GI50 A54
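For IC50 HDAC1 in this document: fluorogenic acetyl-lysine substrate (20 µM) deacetylated by HDAC1, then developer releases fluorophore read at 360 nm excitation and 460 nm emission, inhibitor incubated 30 min at 37 °C.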
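For IC50 HDAC1, C (six-membered ring with substituents) in this document: fluorogenic acetyl-lysine substrate (20 µM) deacetylated by HDAC1, then developer releases fluorophore read at 360 nm excitation and 460 nm emission, inhibitor incubated 30 min at 37 °C.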
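For IC50 HDAC1, D (non-substituent) in this document: fluorogenic acetyl-lysine substrate (20 µM) deacetylated by HDAC1, then developer releases fluorophore read at 360 nm excitation and 460 nm emission, inhibitor incubated 30 min at 37 °C.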
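For IC50 HDAC1, a (compounds of the present invention) in this document: fluorogenic acetyl-lysine substrate (20 µM) deacetylated by HDAC1, then developer releases fluorophore read at 360 nm excitation and 460 nm emission, inhibitor incubated 30 min at 37 °C.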

| Compound | IC50 (HDAC2) | GI50 ([1]; Homo sapiens, NCI-H1975, 72 h) | GI50 [2, 6] | GI50 [3, 7] | GI50 [4, 8] | GI50 ([5]; Homo sapiens, 72 h) | IC50 (HDAC8) | IC50 (HDAC3; [9]) | IC50 HDAC7 (HDAC7) | IC50 (HDAC11; [10]) | IC50 (HDAC1; [11]) | IC50 (HDAC3) | IC50 (HDAC11) | other results |
| --- | --- | --- | --- | --- | --- | --- | --- | --- | --- | --- | --- | --- | --- | --- |
| C/C=C1\NC(=O)c2cccc(n2)CNC(=O)C[C@@H](/C=C/CCSC(C)=O)OC(=O)[C@H](Cc2cccc3ccccc23)NC1=O [Compound 17] | 61 nM | 42 nM | 22000 nM | 920 nM | 1930 nM | 28 nM | 81 nM | 69 nM | no activity | 97 nM | 176 nM | – | – | IC50 (HDAC1; [12]): 176 nM |
| C/C=C1\NC(=O)c2cc(F)cc(n2)CNC(=O)C[C@@H](/C=C/CCSC(=O)CCCC)OC(=O)[C@H](C(C)C)NC1=O [Compound 40] | 53 nM | 43 nM | 50 nM | 30 nM | 40 nM | 55 nM | 45 nM | 42 nM | no activity | 96 nM | 43 nM | – | – | IC50 (HDAC1; [13]): 43 nM |
| C/C=C1\NC(=O)c2cccc(n2)CNC(=O)C[C@@H](/C=C/CCS)OC(=O)[C@@H](C)NC1=O [Compound 145] | 29 nM | 31 nM | 60 nM | 100 nM | 70 nM | 31 nM | 29 nM | – | no activity | – | 51 nM | 26 nM | 83 nM | – |
| C/C=C1\NC(=O)c2cccc(n2)CNC(=O)C[C@@H](/C=C/CCSC(=O)CCCCCCC)OC(=O)CNC1=O [Compound 235] | 19 nM | 63 nM | – | – | – | 92 nM | 47 nM | 35 nM | no activity | 19 nM | 8 nM | – | – | GI50 ([2]; Homo sapiens, MCF7, 72 h, 72 hours, present invention, read-out: GI50 MCF7, a): 56 nM; GI50 [2, 14]: 50 nM; GI50 [3, 15]: 70 nM; GI50 ([3]; Homo sapiens, MOLT-4, 72 h, 72 hours, present invention, read-out: GI50 Molt-4, a): 7 nM; GI50 [4, 16]: 30 nM; GI50 ([4]; Homo sapiens, A549, 72 h, 72 hours, present invention, read-out: GI50 A549, a): 34 nM; IC50 (HDAC1; Table 2, read-out: IC50 HDAC1, a (compounds of the present invention)): < 10 nM |
| C/C=C1\NC(=O)c2cccc(n2)CNC(=O)C[C@@H](/C=C/CCSC(C)=O)OC(=O)[C@H](Cc2ccccc2)NC1=O [Compound 13] | 261 nM | 53 nM | 300 nM | 20 nM | 50 nM | 11 nM | 159 nM | 337 nM | no activity | 94 nM | 187 nM | – | – | IC50 (HDAC1; [12]): 187 nM |
| C/C=C1\NC(=O)c2cc(SC)cc(n2)CNC(=O)C[C@@H](/C=C/CCSC=O)OC(=O)[C@H](C(C)C)NC1=O [Compound 169] | 52 nM | 44 nM | – | – | – | 47 nM | 15 nM | – | no activity | – | 72 nM | 16 nM | 92 nM | GI50 [2, 14]: 70 nM; GI50 [3, 15]: 40 nM; GI50 [4, 16]: 40 nM |
| C/C=C1\NC(=O)c2nc(ccc2C)CNC(=O)C[C@@H](/C=C/CCSC(C)=O)OC(=O)[C@H](Cc2ccccc2)NC1=O [Compound 66] | 16 nM | 27 nM | 30 nM | 30 nM | 20 nM | 31 nM | 26 nM | 31 nM | no activity | 94 nM | 41 nM | – | – | IC50 (HDAC1; [13]): 41 nM |
| C/C=C1\NC(=O)c2nc(ccc2F)CNC(=O)C[C@@H](/C=C/CCSC(C)=O)OC(=O)[C@H](C)NC1=O [Example 63] | 58 nM | 34 nM | 50 nM | 40 nM | 50 nM | 57 nM | 29 nM | – | no activity | – | 41 nM | 39 nM | 91 nM | – |
| C/C=C1\NC(=O)c2nc(cc(SC)n2)CNC(=O)C[C@@H](/C=C/CCSC(C)=O)OC(=O)[C@H](C(C)C)NC1=O [Compound 216] | 33 nM | – | – | – | – | – | 52 nM | 62 nM | no activity | 81 nM | 155 nM | – | – | GI50 [1]: 87 nM; GI50 ([2]; MCF-7 cells, 72 hours incubation, read-out: GI50 MCF): 50 nM; GI50 ([3]; MOLT-4 cells, 72 hours incubation, read-out: GI50 Mol): 40 nM; GI50 ([4]; A549 cells, 72 hours incubation, read-out: GI50 A54): 80 nM; GI50 [5]: 36 nM |
| C/C=C1\NC(=O)c2cc(F)cc(n2)CNC(=O)C[C@@H](/C=C/CCSC(=O)CC)OC(=O)[C@H](C(C)C)NC1=O [Compound 46] | 41 nM | 37 nM | 40 nM | 30 nM | 50 nM | 47 nM | 35 nM | 25 nM | no activity | 82 nM | 22 nM | – | – | IC50 (HDAC1; [13]): 22 nM |
| C/C=C1\NC(=O)c2nc(ccc2SC)CNC(=O)C[C@@H](/C=C/CCSC=O)OC(=O)[C@H](C(C)C)NC1=O [Compound 168] | 41 nM | 66 nM | – | – | – | 36 nM | 13 nM | – | no activity | – | 91 nM | 34 nM | 99 nM | GI50 [2, 14]: 60 nM; GI50 [3, 15]: 100 nM; GI50 [4, 16]: 80 nM |
